Test results published in ChEMBL document CHEMBL1149406, “Isolation and cholinesterase-inhibition studies of sterols from Haloxylon recurvum” (Bioorg Med Chem Lett, 2006).

Tests used:
[1] = target: Acetylcholinesterase (Electrophorus electricus, UniProt O42275); experiment: Inhibitory activity against AChE from electric eel
[2] = target: Butyrylcholinesterase (Equus caballus, UniProt Q9N1N9); experiment: Inhibitory activity against BuChE from horse serum
Chain of Butyrylcholinesterase (Q9N1N9 whole entry): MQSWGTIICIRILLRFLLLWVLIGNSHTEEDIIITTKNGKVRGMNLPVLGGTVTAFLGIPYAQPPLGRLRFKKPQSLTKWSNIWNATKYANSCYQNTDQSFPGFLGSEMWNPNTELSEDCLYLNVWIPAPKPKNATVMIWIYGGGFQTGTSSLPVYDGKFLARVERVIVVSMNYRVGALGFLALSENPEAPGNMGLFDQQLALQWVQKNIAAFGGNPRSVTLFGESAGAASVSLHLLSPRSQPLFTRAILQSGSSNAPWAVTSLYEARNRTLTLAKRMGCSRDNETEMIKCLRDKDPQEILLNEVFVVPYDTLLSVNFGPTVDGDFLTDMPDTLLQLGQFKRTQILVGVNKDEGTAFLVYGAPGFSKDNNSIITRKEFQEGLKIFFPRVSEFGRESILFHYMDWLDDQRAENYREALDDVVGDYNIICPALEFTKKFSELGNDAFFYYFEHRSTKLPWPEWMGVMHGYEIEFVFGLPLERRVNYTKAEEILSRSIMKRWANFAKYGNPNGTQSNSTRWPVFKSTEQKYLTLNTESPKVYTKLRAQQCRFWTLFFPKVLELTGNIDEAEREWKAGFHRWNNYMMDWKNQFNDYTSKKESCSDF

Chain of Acetylcholinesterase (O42275 whole entry): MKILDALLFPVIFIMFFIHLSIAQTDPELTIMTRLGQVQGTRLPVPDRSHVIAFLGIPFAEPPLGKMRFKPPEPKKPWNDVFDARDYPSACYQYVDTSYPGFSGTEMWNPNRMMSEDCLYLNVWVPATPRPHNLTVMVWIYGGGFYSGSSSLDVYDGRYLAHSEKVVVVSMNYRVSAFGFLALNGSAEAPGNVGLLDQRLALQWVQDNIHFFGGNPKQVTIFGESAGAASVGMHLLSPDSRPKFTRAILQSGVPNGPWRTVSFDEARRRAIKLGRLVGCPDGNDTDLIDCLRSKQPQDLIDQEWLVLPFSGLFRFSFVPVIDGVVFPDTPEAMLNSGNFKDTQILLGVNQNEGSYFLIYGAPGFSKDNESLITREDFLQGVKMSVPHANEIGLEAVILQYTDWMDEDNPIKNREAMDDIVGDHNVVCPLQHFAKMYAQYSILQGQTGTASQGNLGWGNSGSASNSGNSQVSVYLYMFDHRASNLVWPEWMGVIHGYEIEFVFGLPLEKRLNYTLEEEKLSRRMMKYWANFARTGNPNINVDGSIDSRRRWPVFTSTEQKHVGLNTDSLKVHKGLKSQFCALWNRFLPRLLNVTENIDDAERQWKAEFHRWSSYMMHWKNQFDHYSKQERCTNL

Structure (SMILES)	Ki [1] [µM]	Ki [2] [µM]	IC50 [1] [µM]	IC50 [2] [µM]
CCC(CC[C@@H](C)[C@H]1CC[C@H]2[C@@H]3C=CC4(O)C[C@@H](O)CC[C@]4(C)[C@H]3CC[C@]12C)C(C)C (some centres undefined)	4	4.2	–	–
CCC(CC[C@@H](C)[C@H]1CC[C@H]2C3=CC(O)C4(O)C[C@@H](O)CC[C@]4(C)[C@H]3CC[C@]12C)C(C)C (some centres undefined)	12.6	2.5	13.7	2
CC[C@H](/C=C/[C@@H](C)[C@H]1CC[C@H]2[C@@H]3C=CC4C[C@@H](O)CC[C@]4(C)C3=CC[C@]12C)C(C)C (some centres undefined)	20.6	4.6	19.2	4.5
CC[C@H](/C=C/[C@@H](C)[C@H]1CC[C@@H]2[C@]1(C)CC=C1[C@]23C=C[C@]2(C[C@@H](O)CC[C@]12C)OO3)C(C)C	25.5	5	26.4	6.9
CC[C@H](C[C@@H](O)[C@@H](C)[C@H]1CC[C@H]2[C@@H]3C[C@@H](O)[C@@]4(O)C[C@@H](O)C[C@H](O)[C@]4(C)[C@H]3CC[C@]12C)C(C)C	17	2.2	17.2	2.5
CC[C@H](C[C@@H](O)[C@@H](C)[C@H]1CCC2C3CC=C4C[C@@H](O)C[C@H](O)[C@]4(C)C3CC[C@@]21C)C(C)C (some centres undefined) [HALOXYSTEROL A]	7.6	4.5	8.3	4.7
CC[C@H](C[C@@H](O)[C@@H](C)[C@H]1CCC2C3C=CC4=C[C@@H](O)C[C@H](O)[C@]4(C)C3CC[C@@]21C)C(C)C (some centres undefined) [HALOXYSTEROL B]	0.85	2.5	0.89	2.3
CC[C@H](C[C@@H](O)[C@@H](C)[C@H]1CCC2C3CCC4=CC(=O)CC[C@]4(C)C3=CC[C@@]21C)C(C)C (some centres undefined) [HALOXYSTEROL C]	1.1	18	1	17.8
CC[C@H](CC[C@@H](C)[C@H]1CC[C@H]2[C@@H]3CCC4=C[C@@H](O)CC[C@]4(C)[C@H]3CC[C@]12C)C(C)C [LAWSARITOL]	16.1	3.7	15.2	3.9
